Laboratory results taken from PubChem BioAssay (NCI).
Where “and” joins values, the source holds several entries; their conditions need not be identical. Equal values may be shown once.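 Compound exposure: 48 hours, 5 concentrations, 96-well plates. GI50: concentration for 50% inhibition of growth. The concentration for full growth arrest is given as TGI.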

Experiments:
Assay in all cases: NCI-60 cell line screen, 48 h
DLD-1 colon = system: DLD-1 colon
SNB-78 CNS = system: SNB-78 CNS
DMS 273 small cell lung = system: DMS 273 small cell lung
XF 498 CNS = system: XF 498 CNS
LXFL 529 NSCLC = system: LXFL 529 NSCLC
T-47D breast = system: T-47D breast
DU-145 prostate = system: DU-145 prostate
DMS 114 small cell lung = system: DMS 114 small cell lung

SMILES	GI50 (T-47D breast)	TGI (T-47D breast)	GI50 (DU-145 prostate)	TGI (DU-145 prostate)	further results
O=c1cccccc1[O-].O=c1cccccc1[O-].O=c1cccccc1[O-].[La+3]	–	–	–	–	GI50 (DLD-1 colon): 22.7 µM; TGI (DLD-1 colon): > 100 µM; GI50 (SNB-78 CNS): 10.5 µM; TGI (SNB-78 CNS): 86.9 µM; GI50 (DMS 273 small cell lung): 5.98 µM; TGI (DMS 273 small cell lung): > 100 µM
N#Cc1cccc(/C=N/N=C(\N)NO)c1	–	–	–	–	TGI (DLD-1 colon): > 100 µM; TGI (SNB-78 CNS): > 100 µM; TGI (XF 498 CNS): > 100 µM; TGI (LXFL 529 NSCLC): > 100 µM; TGI (DMS 273 small cell lung): > 100 µM
COc1cc(-c2nc(SCCC(C)C)nc(Nc3ccc(S(N)(=O)=O)cc3)c2C#N)cc(OC)c1OC	2.26 µM	> 100 µM	3.47 µM	> 100 µM	–
C[N+]1=C(/C=C\C=C\c2ccccc2)C(C)(C)c2ccccc21	0.966 µM	5.36 µM	4.62 µM	16.1 µM	–
CCOC(=O)c1[nH]c(COC(C)=O)c2c1CCCCCCCCCC2	–	–	–	–	TGI (DLD-1 colon): > 100 µM; TGI (SNB-78 CNS): > 100 µM; TGI (DMS 114 small cell lung): > 100 µM; TGI (XF 498 CNS): > 100 µM; TGI (LXFL 529 NSCLC): > 100 µM; TGI (DMS 273 small cell lung): > 100 µM
CN(C)c1ccc(/C=C/c2cc[n+](C)c(/C=C/c3ccc(N(C)C)cc3)c2)cc1	0.152 µM	1.3 µM	0.398 µM	11 µM	–
N#C/C(=C\c1ccc(Br)cc1)n1nnc2ccc(F)cc21	0.447 µM	6.11 µM	–	–	–
CCOc1ccc2nc(NC(=O)C(=O)C(c3cnc4ccccc4n3)[N+](=O)[O-])sc2c1 (stereo not given)	–	> 100 µM	–	–	–
CN(C)CCNC(=O)c1ccc(NC(=O)c2nc([N+](=O)[O-])cn2C)cc1	–	> 100 µM	–	> 100 µM	–
C#CCOc1cccc(Nc2ncnc3cc(NC(=O)CCl)ccc23)c1	9.11 µM	32 µM	10 µM	21.6 µM	–
CC(C)=CC1=C2C3=C(C(=O)C4(O)Oc5c(C)c6c7c(c5OC24C)[C@@H](C)CC[C@@H]7[C@@H](C)C[C@H]6C=C(C)C)C(C)CCC3C(C)C1 (stereo not given in full)	–	–	> 100 µM	> 100 µM	–
O=c1c(-c2ccccc2)coc2cc(OC/C(=N/O)c3ccccc3)ccc12	15.3 µM	96.7 µM	29 µM	94.1 µM	–
Cc1ccc(Cl)cc1NC(=O)c1sc2nc3c(cc2c1N)C(=O)CCC3	> 100 µM	> 100 µM	4.4 µM	> 100 µM	–
CCN(CC)c1ccc(C(=O)c2ccc(N(CC)CC)cc2)cc1	0.789 µM	> 100 µM	0.623 µM	7.23 µM	–
COc1cc(Nc2ncc(F)c(Nc3ccc4c(n3)N(COP(=O)(O)O)C(=O)C(C)(C)O4)n2)cc(OC)c1OC	2.92 µM and 1.24 µM	26 µM and > 10 µM	3.69 µM and 3.08 µM	22.3 µM and > 10 µM	–
CCN1CCN(CC(=O)N2c3cccc4cccc(c34)N(C(=O)CN3CCN(CC)CC3)C2c2cn(-c3ccccc3)nc2-c2cccc([N+](=O)[O-])c2)CC1	1.66 µM	3.7 µM	1.96 µM	4.03 µM	–
COC(=O)Nc1nc2ccc(Br)cc2[nH]1	–	–	–	–	TGI (DLD-1 colon): > 100 µM; TGI (SNB-78 CNS): > 100 µM; TGI (DMS 114 small cell lung): > 100 µM; TGI (XF 498 CNS): 86.5 µM; TGI (LXFL 529 NSCLC): > 100 µM; TGI (DMS 273 small cell lung): > 100 µM

SMILES	GI50 (T-47D breast)	TGI (T-47D breast)	GI50 (DU-145 prostate)	TGI (DU-145 prostate)	further results
CCOC(=O)c1c2c(n3ccccc13)C(=O)c1ncccc1C2=O	2.51 µM	47.8 µM	0.0466 µM	5.31 µM	–
Clc1ccc(C(n2cc(Br)cn2)n2cc(Br)cn2)cc1	–	–	–	–	TGI (SNB-78 CNS): 44.4 µM; TGI (LXFL 529 NSCLC): 29.5 µM; TGI (DMS 273 small cell lung): 36.8 µM
C=C1CC2(OC1=O)C(=O)Nc1ccccc12 (stereo not given)	1.13 µM	2.92 µM	2.54 µM	8.47 µM	–
N#CC1CC2(CCN1C(=O)c1ccccc1)OCCO2 (stereo not given)	–	–	–	–	TGI (DLD-1 colon): > 100 µM; TGI (SNB-78 CNS): > 100 µM; TGI (DMS 114 small cell lung): > 100 µM; TGI (XF 498 CNS): > 100 µM; TGI (LXFL 529 NSCLC): > 100 µM; TGI (DMS 273 small cell lung): > 100 µM
NCCCNCCCCNC(=O)C(O)NC(=O)CCCCCCN=C(N)N (stereo not given)	2130 µM	> 5000 µM	2890 µM	> 5000 µM	TGI (DLD-1 colon): 750 µM; TGI (SNB-78 CNS): > 750 µM; TGI (DMS 114 small cell lung): 581 µM; TGI (XF 498 CNS): 119 µM; TGI (DMS 273 small cell lung): > 750 µM
O=C1C(Cl)=C(NCc2ccco2)C(=O)c2ccccc21	10.2 µM	73.7 µM	2.6 µM	6.27 µM	–
COc1cc2c(cc1OC)C13CCN4CC5CCOC6CC(=O)N2C1C6C5CC43 (stereo not given)	–	> 100 µM	–	> 100 µM	–
CC(=O)OCc1cc2ccccc2nc1C(Br)(Br)Br	–	> 100 µM	–	23.9 µM	–
COc1ccc(-c2ccc(-c3ccc(C(=N)N)o3)o2)cc1	1.53 µM	4.07 µM	1.91 µM	4.86 µM	–
O=C1C(=Cc2c(O)cc(O)cc2O)C(=O)c2ccccc21	–	–	–	38.5 µM	TGI (DLD-1 colon): > 55.2 µM; TGI (SNB-78 CNS): 62.1 µM; TGI (DMS 114 small cell lung): > 100 µM; TGI (LXFL 529 NSCLC): > 57.5 µM; TGI (DMS 273 small cell lung): > 100 µM
OCC#Cc1ccccc1C#CCCCCCC#Cc1ccccc1C#CCO	16.9 µM	32.3 µM	20.2 µM	41.7 µM	–
CCCCCCCc1cc2c3c(nc4ccccc42)C(=O)c2cccnc2-c3n1	4.31 µM	20.7 µM	2.54 µM	6.63 µM	–
CC(=O)C1=C(O)CC2CC3c4[nH]c5ccccc5c4CCN3CC2C1 (stereo not given)	–	–	–	–	TGI (DLD-1 colon): > 100 µM; TGI (SNB-78 CNS): > 100 µM; TGI (DMS 114 small cell lung): > 100 µM; TGI (XF 498 CNS): > 100 µM; TGI (LXFL 529 NSCLC): > 100 µM; TGI (DMS 273 small cell lung): > 100 µM
CN(Cc1cc(C(C)(C)C)cc(Br)c1O)Cc1cc(C(C)(C)C)cc(Br)c1O	–	12.3 µM	–	19.3 µM	–
Cc1cnc(C(=O)NNc2nc3sc4c(c3c(=O)n2C)C(C)CCC4)cn1 (stereo not given)	0.416 µM	5.68 µM	0.458 µM	4.15 µM	–
Cc1ncc(C(=O)Nc2ccc(CN3CCN(C)CC3)c(C(F)(F)F)c2)cc1C#Cc1cnc(N)cc1C#N	> 16.7 µM	> 16.7 µM	0.278 µM	2.75 µM	–
NC(N)=NS(=O)(=O)c1ccc(Nc2c3ccccc3nc3c(C(=O)Nc4ccc(S(N)(=O)=O)cc4)cccc23)cc1	–	–	–	–	TGI (DLD-1 colon): > 100 µM; TGI (SNB-78 CNS): > 100 µM; TGI (DMS 114 small cell lung): > 100 µM; TGI (XF 498 CNS): 69.8 µM; TGI (LXFL 529 NSCLC): 78.5 µM; TGI (DMS 273 small cell lung): > 100 µM
